pEC50: −log10 of the molar value. Where two headings read alike, the source gives them in different places.
Experiments:
TS1(SW) T cell receptor [1] = test: Proliferation of TS1(SW) CD4+ T cells in response to graded doses of peptide; type: cell-based, mouse; details: for pEC50: read-out: half maximal stimulation
TS1 T cell receptor = test: Proliferation of TS1 CD4+ T cells in response to graded doses of peptide; type: cell-based, mouse
TS1(SW) T cell receptor [2] = details: Jordan et al, 2001; cited from earlier work

| Sequence | affinity for the TS1(SW) TCR, fold lower than for S1(SW) peptide (TS1(SW) T cell receptor [1]) | binding affinity of TS1(SW) T cell receptor (in words) (TS1(SW) T cell receptor [1]) | fold higher concentrations of S1 peptide needed to reach half-maximal stimulation (TS1(SW) T cell receptor [1]) | pEC50 (TS1(SW) T cell receptor [1]) | binding affinity of TS1 T cell receptor (in words) (TS1 T cell receptor) | affinity of TS1(SW) TCR for S1 peptide, fold lower than that of the TS1 TCR (TS1(SW) T cell receptor [2]) | pEC50 (TS1(SW) T cell receptor [1]; CD4+ T cells of TS1(SW) TCR transgenic mice, proliferation, FIG. 7) | binding affinity of TS1(SW) T cell receptor (in words) (TS1(SW) T cell receptor [1]; FIG. 7B) | binding affinity of TS1 T cell receptor (in words) (TS1 T cell receptor; FIG. 7A) |
| --- | --- | --- | --- | --- | --- | --- | --- | --- | --- |
| SFERFEIFPKE [S1 peptide] | about 100 fold | low affinity | around 30 fold | < 6.00 | high affinity | approximately 100 fold |  |  |  |
| SFEKFEIFPKT [S1(SW) peptide] |  |  |  |  |  |  | ~7.30 | high affinity | low affinity |
